{
  "source": "patent US20240294535A1",
  "about": "“IMIDAZOTRIAZINE THIOBENZAMIDE DERIVATIVE, AND PREPARATION METHOD AND APPLICATION THEREOF” (Yunbaiyao Zhengwu Science and Technology (Shanghai) Co., …, priority 2023, published 2024)",
  "key": {"Vero cells": {"system": "Vero cells", "assay": "Anti-proliferation activity, CTG, Vero cells", "format": "cell-based", "conditions": "Chlorocebus sabaeus; Vero cells, 48 h, CTG", "protocol": "(§1) Experimental objective: To evaluate the anti-proliferation activities of the compounds against MKN-45 cells, EBC-1 cells, Hs746T cells and Vero cells.\n(§2) Experimental methods: Tumor cell lines were cultured and periodically passaged, and cells in logarithmic growth phase were taken for plate spreading. The cells were stained with Trypan blue, counted and adjusted to an appropriate density. 50 μL of cell suspension was added into each well of a culture plate, and 50 μL of nutrient solution without cells was added into a blank control well. The culture plate was precultured for 24 h in an incubator under the condition of 37° C., 5% CO2 and 100% relative humidity.\n(§3) The DMSO stock solutions of the compounds 1-28 and Capmatinib were prepared, and diluted with Tecan D300e. Each compound was diluted to 7 concentration levels: 0.50 μM, 0.125 μM, 0.031 μM, 0.0078 μM, 0.0020 μM, 0.00049 μM, 0.00012 μM. The experiment was carried out in triplicate.\n(§4) 50 μL of the solution was added into each designated well, and the culture plate was incubated for 48 h. 50 μL of CTG working solution was added to each well. The culture plate was wrapped with aluminum foil to avoid light and shaken in the shaker for 2 min to induce cell lysis. The culture plate was placed at room temperature for 10 min to stabilize light-emitting signal which was detected with a 2014 EnVision plate reader. Experimental data was processed by GraphPad Prism 7 to calculate IC50."}, "in vivo": {"assay": "in vivo", "conditions": "both, Kunming, mouse, po"}, "c-MET": {"target": "c-MET (Homo sapiens (Human), UniProt P08581)", "sequence (P08581 25-1390)": "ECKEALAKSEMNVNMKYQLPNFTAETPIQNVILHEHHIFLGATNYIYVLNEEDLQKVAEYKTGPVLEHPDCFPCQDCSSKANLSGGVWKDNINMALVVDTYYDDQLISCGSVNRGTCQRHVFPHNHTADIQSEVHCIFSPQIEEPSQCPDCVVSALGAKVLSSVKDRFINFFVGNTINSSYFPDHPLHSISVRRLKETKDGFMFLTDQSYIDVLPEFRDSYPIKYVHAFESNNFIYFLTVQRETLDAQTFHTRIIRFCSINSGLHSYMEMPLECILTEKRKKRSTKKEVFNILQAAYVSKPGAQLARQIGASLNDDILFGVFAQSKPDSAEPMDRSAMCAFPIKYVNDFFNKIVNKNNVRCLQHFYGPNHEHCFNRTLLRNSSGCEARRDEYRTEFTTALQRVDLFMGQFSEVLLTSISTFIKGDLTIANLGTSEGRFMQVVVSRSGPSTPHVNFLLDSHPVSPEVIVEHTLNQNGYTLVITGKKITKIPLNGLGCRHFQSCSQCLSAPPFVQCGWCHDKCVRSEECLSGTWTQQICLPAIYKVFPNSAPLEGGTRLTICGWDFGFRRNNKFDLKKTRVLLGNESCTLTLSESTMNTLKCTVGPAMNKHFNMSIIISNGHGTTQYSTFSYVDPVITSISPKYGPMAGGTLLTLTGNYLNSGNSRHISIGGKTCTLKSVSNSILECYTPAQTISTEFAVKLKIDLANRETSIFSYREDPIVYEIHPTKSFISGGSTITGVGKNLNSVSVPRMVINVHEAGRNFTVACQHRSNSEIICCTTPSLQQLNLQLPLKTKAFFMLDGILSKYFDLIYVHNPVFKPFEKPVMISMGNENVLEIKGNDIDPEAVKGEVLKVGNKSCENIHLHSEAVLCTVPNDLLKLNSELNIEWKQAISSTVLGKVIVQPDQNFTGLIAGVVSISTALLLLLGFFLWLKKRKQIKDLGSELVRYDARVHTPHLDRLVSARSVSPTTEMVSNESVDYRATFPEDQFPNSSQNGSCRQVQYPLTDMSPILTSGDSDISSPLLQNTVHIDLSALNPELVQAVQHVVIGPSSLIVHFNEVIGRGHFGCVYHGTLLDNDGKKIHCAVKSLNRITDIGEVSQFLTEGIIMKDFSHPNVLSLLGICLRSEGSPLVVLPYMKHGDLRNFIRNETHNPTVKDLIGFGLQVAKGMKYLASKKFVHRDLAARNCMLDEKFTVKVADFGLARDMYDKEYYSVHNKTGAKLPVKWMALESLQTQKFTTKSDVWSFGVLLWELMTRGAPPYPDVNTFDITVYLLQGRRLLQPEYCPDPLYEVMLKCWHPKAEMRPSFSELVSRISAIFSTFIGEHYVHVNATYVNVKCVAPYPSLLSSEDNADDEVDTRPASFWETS", "assay": "c-MET kinase inhibitory activity (ELISA, poly(Glu,Tyr) substrate)", "format": "biochemical", "conditions": "ATP 4 μM, 37° C. 1 h; read-out: c-MET kinase inhibitory enzymatic activity IC50"}, "[1]": {"system": "human EBC-1 cell subcutaneous xenograft model", "assay": "In vivo anti-tumor assessment in EBC-1 cell xenograft tumor mouse model", "design": "species or system mice", "conditions": "10 mg/kg P.O. QD × 15 days", "protocol": "Experimental objective: To investigate in vivo efficacy of representative compounds on human lung squamous carcinoma cell (human EBC-1 cell) subcutaneous xenograft model.\nExperimental methods: The EBC-1 cell xenograft tumor mouse model was used, according to the diameters of tumor, the tumor volume (TV), relative tumor volume (RTV), relative tumor proliferation rate (T/C (%)) and tumor growth inhibition value (TGI (%)) were calculated.\nTGI (%) or T/C (%) of the compounds was evaluated. TGI (%) reflects a tumor growth inhibitory rate. TGI (%) was calculated as follows: TGI (%)=[1−(average tumor volume at the end of administration in a treatment group-average tumor volume at the beginning of administration in the treatment group)/(average tumor volume at the end in a solvent control group-average tumor volume at the beginning in the solvent control group)]×100%.\nT/C (%) was calculated as follows: T/C (%)=TRTV/CRTV×100%; where TRTV is treatment RTV, and CRTV is negative control RTV. According to the measurement results of the tumor, RTV was calculated, and the calculating formula for RTV is as follows: RTV=Vt/V0; where V0 is the average tumor volume measured on the day of first administration; and Vt is the average tumor volume measured on a specified day. TRTV and CRTV were measured on the same day."}, "Hs746T cells": {"system": "Hs746T cells", "assay": "Anti-proliferation activity, CTG, Hs746T cells", "format": "cell-based", "conditions": "Homo sapiens; Hs746T cells, 48 h, CTG", "protocol": "as §1, §2, §3, §4"}, "MKN-45 cells": {"system": "MKN-45 cells", "assay": "Anti-proliferation activity, CTG, MKN-45 cells", "format": "cell-based", "conditions": "Homo sapiens; MKN-45 cells, 48 h, CTG", "protocol": "as §1, §2, §3, §4"}, "EBC-1 cells": {"system": "EBC-1 cells", "assay": "Anti-proliferation activity, CTG, EBC-1 cells", "format": "cell-based, human", "conditions": "Homo sapiens; EBC-1 cells, 48 h, CTG", "protocol": "as §1, §2, §3, §4"}},
  "data": [
    {"compound": "CNC(=S)c1ccc(-c2cnc3ncc(Cc4ccc5nccnc5c4)n3n2)cc1F", "note": "[Compound 17]", "values": [
      {"measurement": "IC50", "setting": "Vero cells", "value": 123, "unit": "nM"},
      {"measurement": "LD50", "setting": "in vivo", "value": 318, "unit": "mg/kg"},
      {"measurement": "IC50", "setting": "c-MET", "value": 1.6, "unit": "pM"},
      {"measurement": "T/C(%)", "setting": "[1]", "value": 20.42, "unit": "%"},
      {"measurement": "TGI(%)", "setting": "[1]", "value": 96.76, "unit": "%"},
      {"measurement": "Tumor Volume (Day 15)", "setting": "[1]; Day 15", "value": "184 ± 27", "unit": "mm^3"},
      {"measurement": "inhibition of growth of the tumor in mice (tumor volume change)", "setting": "[1]; end of the experiment, FIG. 2", "value": "better inhibitory effects"},
      {"measurement": "IC50", "setting": "Hs746T cells", "value": 1.2, "unit": "nM"},
      {"measurement": "IC50", "setting": "MKN-45 cells", "value": 1.2, "unit": "nM"},
      {"measurement": "IC50", "setting": "EBC-1 cells", "value": 1.6, "unit": "nM"}
    ]}
  ]
}
